Like-named read-outs stand apart in the source and are kept apart here.
Experiments:
[1] = Pharmacokinetic study in rats, single intramuscular injection, plasma prodrug and parent drug by LC-MS/MS; format: in vivo, Sprague-Dawley rats
Protocol: General Procure: The formulations of opioid ester prodrugs are prepared to provide 180 mg/ml suspension by adding 1.8 g of prodrug to a 50 ml glass vial. To the solids is added […] of injection vehicle (2-3% sodium CMC, 0.2% polysorbate 20 in phosphate buffered saline (PBS) pH 7). The resulting mixture is sonicated for 10 min and left standing. The contents of the vial is then shaken until a uniform, clump-free suspension is obtained prior to dosing.
Twelve male Male Sprague-Dawley rats with a body weight approximately 250 g are used in the study. A single intramuscular injection of ester prodrug (180 mg) is administered to rats. Blood samples is collected at 0 (pretreatment) 0.5, 1, 2, 4, 8, 12 and 24 days after administration. Blood is collected with commercially available plastic tubes containing a clot activator. Within 10 min of collection, blood is centrifugation at 2.500 g for 10 min. Plasma is separated and frozen at −18° C. until analyzed by LC-MS/MS. Both prodrug and its corresponding parent drug are analyzed. The pharmacokinetic parameters (AUC, Tmax, Cmax, T1/2, etc) of the test articles are compared to compare the performance of prodrugs to their parent drugs.
Pharmacokinetic Studies for Compounds 2, 3, and 7. Pharmacokinetic studies were conducted for three compounds (Compounds 2, 3 and 7) in rats. The formulations were prepared either in sesame oil (Compound 2, 100 mg eq/mL) or aqueous suspension (Compounds 3 and 7, 100 mg eq/mL and 60 mg eq/mL, respectively). The dosage “eq” refers to the equivalent dosing amount of the respective parent drug, e.g., oxymorphone or hydromorphone in this Example. The sesame oil formulation contains 1.2% benzyl alcohol. The suspension formulation was prepared in PBS buffer containing 2% CMC and 0.2% Tween 80. The particle sizes of the testing compounds in suspension were kept under 10 micron. Both oil and suspension formulations were sterilized by electronic beam before administered to Sprague-Dawley rats.
Twelve Male Sprague-Dawley rats with body weight of approximately 250 gram were randomly divided into three groups. The rats were housed in cages for at least 5 days prior to entering the study and had free access to standard pellets and water during the period. The formulations (0.05 mL) were administered to rats by intra muscular injection via hind leg. Blood (0.10 mL) was sampled by individual tail vein puncture at the following time points: 0.5, 2, 8 hours, 1, 3, 6, 13, 27 days post-dose. Blood was collected into K2EDTA coated tubes and centrifuged at 4° C. at 2000 g in for 10 min to obtain plasma. Plasma (0.05 mL) was immediately quenched with 100 uL methanol/acetonitrile (1:1) containing 50 ng/mL ISTD (Terfenadine and Buspirone). The mixture was vortexed for 1 min and centrifuged at 4000 rpm for 15 min. Supernatant was diluted 2 fold with 0.1% FA in water for injection. Both prodrug and the drug were analyzed using LC-MS/MS on AB Sciex API 5500. The pharmacokinetic parameters were calculated and reported as following.

[2] = monomeric fatty acid, aqueous; Vorum et al. 1992; cited from earlier work
[3] = analyte prodrug Compound 7 in plasma, Compound 7 IM 102.5 mg/kg, aqueous suspension, N = 4, mean
[4] = male, Sprague-Dawley, rat, analyte prodrug Compound 7 in plasma, Compound 7 IM 102.5 mg/kg, aqueous suspension, N = 4, mean
[5] = analyte prodrug Compound 3 in plasma, Compound 3 IM 119.14 mg/kg, aqueous suspension, N = 4, mean
[6] = oxymorphone / Compound 3, Compound 3 IM 119.14 mg/kg, N = 4, mean
[7] = analyte prodrug Compound 2 in plasma, Compound 2 IM 29.7 mg/kg, sesame oil formulation, Rat #14
[8] = analyte prodrug Compound 2 in plasma, Compound 2 IM 118.11 mg/kg, sesame oil formulation, Rat #1-3, mean
[9] = oxymorphone / Compound 2, Compound 2 IM 29.7 mg/kg, Rat #14
[10] = oxymorphone / Compound 2, Compound 2 IM 118.11 mg/kg, Rat #1-3, mean

For `CCCCCCCCCCCCCCCCCCCC(=O)Oc1ccc2c3c1O[C@H]1C(=O)CC[C@H]4[C@@H](C2)N(C)CC[C@]314` [Compound 7, Hydromorphone eicosanate], the “AUC Extr” value [1, 3] was 4.36%, the AUCInf/D [1, 3] was 27.8 kg·ng·h/mL/mg and the AUC(0-inf) [1, 4] was 2850 ng·h/mL. For the same molecule, the AUC(0-t) [1, 4] was 2760 ng·h/mL, the MRT inf [1, 4] was 138 h and the half-life [1, 4] was 2.68 days. It also gave a Cmax ([1]; male, Sprague-Dawley, rat, analyte prodrug Compound 7 in plasma, Compound 7 IM 102.5 mg/kg, aqueous suspension, N = 4, mean, read-out: Cmax) of 45.6 ng/mL and a tmax ([1]; male, Sprague-Dawley, rat, analyte prodrug Compound 7 in plasma, Compound 7 IM 102.5 mg/kg, aqueous suspension, N = 4, mean, read-out: tmax) of 6.13 h.
For `CCCCCCCCCCCC(=O)O` [laurate], the solubility [2] is given as “greater than 500 μM”.
In the case of `CCCCCCCCCCCCCC(=O)O` [myristate], the solubility [2] is given as 20 to 30 µM.
In the case of Oxymorphone eicosanate [Compound 3], the “AUC Extr” value ([1]; analyte parent drug oxymorphone in plasma, Compound 3 IM 119.14 mg/kg, aqueous suspension, N = 4, mean) is reported as 63.7%, the “AUC Extr” value [1, 5] is reported as 29.9% and the AUCInf [1, 5] is reported as 2355 ng·h/mL. For the same molecule, the AUCInf/D [1, 5] was 19.8 kg·ng·h/mL/mg, the AUClast [1, 5] was 1711 ng·h/mL and the Cmax [1, 5] was 4.79 ng/mL. It also gave an MRTInf [1, 5] of 484 h, a t1/2 [1, 5] of 263 h and a tmax [1, 5] of 212 h. The “AUClast Ratio (Parent/Pro)” value [1, 6] was 4.44 and the “Cmax Ratio (Parent/Pro)” value [1, 6] was 3.22.
For Oxymorphone hexadecanate [Compound 2], the “AUC Extr” value ([1]; analyte parent drug oxymorphone in plasma, Compound 2 IM 29.7 mg/kg, sesame oil formulation, Rat #14) was 0.99%, the “AUC Extr” value ([1]; analyte parent drug oxymorphone in plasma, Compound 2 IM 118.11 mg/kg, sesame oil formulation, Rat #1-3, mean) was 5.71% and the “AUC Extr” value [1, 7] was 42.6%. For the same molecule, the AUCInf [1, 7] was 30.3 ng·h/mL, the AUCInf/D [1, 7] was 1.02 kg·ng·h/mL/mg and the AUClast [1, 7] was 17.4 ng·h/mL. For the same molecule, the Cmax [1, 7] was 0.54 ng/mL, the MRTInf [1, 7] was 108 h and the t1/2 [1, 7] was 76 h. For the same molecule, the tmax [1, 7] was 2.00 h, the “AUC Extr” value [1, 8] was 39.8% and the AUCInf [1, 8] was 101 ng·h/mL. For the same molecule, the AUCInf/D [1, 8] was 0.857 kg·ng·h/mL/mg, the AUClast [1, 8] was 51.3 ng·h/mL and the Cmax [1, 8] was 1.62 ng/mL. It also gave an MRTInf [1, 8] of 156 h, a t1/2 [1, 8] of 130 h and a tmax [1, 8] of 3.50 h. The “AUClast Ratio (Parent/Pro)” value [1, 9] was 151, the “Cmax Ratio (Parent/Pro)” value [1, 9] was 21 and the “AUClast Ratio (Parent/Pro)” value [1, 10] was 161. For the same molecule, the “Cmax Ratio (Parent/Pro)” value [1, 10] was 63.7.

Reference: US11254685B2, “Abuse-resistant long-acting release opioid prodrugs” (priority 2017, dated 2022)
